Measured values reported in PubChem BioAssay AID504542 (Sanford-Burnham Center for Chemical Genomics, 2011).

System: S. cerevisiae TIM10 counterscreen strain, luminescence
Assay: inhibitors of TIM10 yeast strain luminescence, dose response, counter-screen for tim10-1 inhibitor project, S. cerevisiae, uHTS hits (AID 504542)

SMILES | IC50 [µM]
CCOc1ccccc1NC(=O)/C=C/C(N)=O | 3.32
Cc1nonc1C1CCCN1C(=O)c1cc(COc2cccc(C(F)(F)F)c2)on1 (stereo unspecified) | 9.73
O=S(=O)(CCN(CCS(=O)(=O)C(F)(F)F)CC1CCCO1)C(F)(F)F (stereo unspecified) | 5.4
O=C(NNC(=S)Nc1cccc(C(F)(F)F)c1)c1cccc(Cl)c1 | 9.48
COc1ccc(/C(C)=N/NC(=S)NCCc2ccccc2)cc1 | 7.83
CCCCCCCCCCOC(=O)Cn1c(COc2ccccc2OC)[n+](C)c2ccccc21 | 8.06
O=[N+]([O-])c1ccccc1N/N=C/c1c[nH]c2ccccc12 | 5.11
O=C1CC(Sc2nnnn2-c2ccccc2)C(=O)N1c1cccc(Cl)c1 (stereo unspecified) | 1.72
O=C(OCn1ncc(Br)c(Br)c1=O)c1ccccc1Cl | 1.41
O=C(OCn1ncc(Br)c(Br)c1=O)c1ccc(F)cc1 | 1.15
CCOc1ccccc1N1C(=O)CC(Sc2n[nH]c(-c3ccccc3)n2)C1=O (stereo unspecified) | 2.27
COC(=O)C(C(C)=O)C1=C/C(=N\S(=O)(=O)c2ccc(C)cc2)c2ccccc2C1=O (stereo unspecified) | 3.81
COc1ccc(NC2CCN(C3CC(=O)N(c4ccc(F)c(Cl)c4)C3=O)CC2)cc1 (stereo unspecified) | 2.91
Cc1ccc(NC(=O)c2cc(S(=O)(=O)NCCC3=CCCCC3)ccc2F)cc1 | 12.3
CC(=O)c1ccc(NC(=S)NC(C)c2ccc(Cl)cc2Cl)cc1 (stereo unspecified) | 9.11
CCCOc1ccc(N2C(=O)CC(N3CCC(O)(c4cccc(C(F)(F)F)c4)CC3)C2=O)cc1 (stereo unspecified) | 3.95
Fc1ccc(CNC(=S)Nc2cccc(C(F)(F)F)c2)cc1 | 8.8
CCOC(=O)c1c(CSc2ccc(C)cc2)n(C)c2cc(Br)c(O)c(CN(C)C)c12 | 12.8
CCOC(=O)/C=C/C(=O)Nc1cccc([N+](=O)[O-])c1 | 1.9
Cc1ccc(NC2=C/C(=N\S(=O)(=O)c3cccs3)c3ccccc3C2=O)c(C)c1 | 3.94
Cc1nc(Nc2ccccc2)sc1-c1ccccc1 | 3.09
Cc1ccc(CNC(=O)c2ccc(Cn3nc(C)c(Cl)c3C)o2)cc1 | 10.1
CC1(CC(=O)N/N=C/c2ccc(OCc3ccc(Cl)cc3Cl)cc2)OCCCO1 | 2.94
CC(C)NC(=S)N/N=C1\CCCCc2ccccc21 | 3.66
COc1ccc(C(=O)O/N=C(\N)c2ccc(Cl)cc2)cc1 | 4.07
Cc1cc(C)cc(N2C(=O)CC(Sc3nnnn3-c3ccccc3)C2=O)c1 (stereo unspecified) | 0.69
